Legend:
[1] = biological target: T1, recombinant Mpro^CoV-2 (SARS-CoV-2 M^pro) (Severe acute respiratory syndrome coronavirus 2, UniProt P0DTD1); assay: FRET peptide cleavage assay (Dabcyl-KTSAVLQSGFRKME-Edans); format: biochemical
T1 construct: gene rep
Description: FRET peptide cleavage assay (Dabcyl-KTSAVLQSGFRKME-Edans) on recombinant Mpro^CoV-2 (SARS-CoV-2 M^pro)

[2] = biological target: T2, His-tagged recombinant Mpro^CoV-2 (Severe acute respiratory syndrome coronavirus 2, UniProt P0DTD1); assay: microscale thermophoresis binding check; settings: 50 nM labelled protein, PBS-T, 2.5% DMSO, 25 °C, 60-90 min incubation; tested concentration, not a Kd
T2 construct: gene rep
Description: microscale thermophoresis binding check on His-tagged recombinant Mpro^CoV-2

Row | Compound | inhibition at 20 µM [1] [%] | Ligand Concentration Displaying: / Binding [2] [µM]
1 | NC(=O)CCC(=O)N(CC(=O)NC1CCCCC1)[C@H](CB(O)O)c1ccccc1 [3a, (R)-(2-(4-Amino-N-(2-(cyclohexylamino)-2-oxoethyl)-4-oxobutanamido)-2-phenylethyl)boronic Acid] | 23.4 | –
2 | NC(=O)CCC(=O)N(CC(=O)NCc1ccccc1)[C@H](CB(O)O)c1ccccc1 [3c, (R)-(2-(4-Amino-N-(2-(benzylamino)-2-oxoethyl)-4-oxobutanamido)-2-phenylethyl)boronic Acid] | – | 4
3 | NC(=O)CCCC(=O)N(CC(=O)NCc1ccccc1)[C@H](CB(O)O)c1ccccc1 [3ea, (R)-(2-(5-Amino-N-(2-(benzylamino)-2-oxoethyl)-5-oxopentanamido)-2-phenylethyl)boronic Acid] | 23.7 | –
4 | NC(=O)CCCC(=O)N(CC(=O)NCc1ccccc1)[C@@H](CB(O)O)c1ccccc1 [3eb, (S)-(2-(5-Amino-N-(2-(benzylamino)-2-oxoethyl)-5-oxopentanamido)-2-phenylethyl)boronic Acid] | – | 3.1
5 | CC(C)(C)NC(=O)CN(C(=O)CCCC(N)=O)[C@H](CB(O)O)c1ccccc1 [3f, (R)-(2-(5-Amino-N-(2-(tert-butylamino)-2-oxoethyl)-5-oxopentanamido)-2-phenylethyl)boronic Acid] | – | 1

— paper PMC10005264, “Computational Design, Synthesis, and Biophysical Evaluation of β-Amido Boronic Acids as SARS-CoV-2 M^pro Inhibitors” (Molecules, 2023)
